# Where two headings read alike, the source gives them in different places.
# Assays:
# [1] = target: T1, serotonin 5-HT1A receptor (Homo sapiens, UniProt P08908); conditions: literature; cited from earlier work
# T1 sequence (P08908 1-422): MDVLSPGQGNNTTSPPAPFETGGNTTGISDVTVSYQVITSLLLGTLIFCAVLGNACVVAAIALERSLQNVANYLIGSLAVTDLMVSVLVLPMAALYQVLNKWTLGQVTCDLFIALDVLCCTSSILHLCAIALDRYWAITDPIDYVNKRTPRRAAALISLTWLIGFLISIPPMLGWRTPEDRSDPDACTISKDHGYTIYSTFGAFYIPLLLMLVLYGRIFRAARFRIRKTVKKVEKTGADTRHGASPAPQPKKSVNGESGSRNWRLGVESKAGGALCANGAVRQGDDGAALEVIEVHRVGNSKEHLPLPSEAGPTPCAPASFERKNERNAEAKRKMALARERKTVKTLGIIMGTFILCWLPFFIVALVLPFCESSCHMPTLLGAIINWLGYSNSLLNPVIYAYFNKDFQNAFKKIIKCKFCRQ
# [2] = target: T1, serotonin 5-HT1A receptor; conditions: in vitro, literature; cited from earlier work
# [3] = system: prenatally valproate-treated mice; conditions: Hara et al. 2017, cited from earlier work
# [4] = system: ASD mouse models (prenatal valproate, Cntnap2 knockout, NR1 hypomorph, BTBR); conditions: several ASD mouse models, literature; cited from earlier work
# ASD patients = conditions: cited from earlier work
# [5] = target: T2, serotonin 5-HT2B receptor (Homo sapiens, UniProt P41595); conditions: in vitro, literature; cited from earlier work
# T2 sequence (P41595 whole entry): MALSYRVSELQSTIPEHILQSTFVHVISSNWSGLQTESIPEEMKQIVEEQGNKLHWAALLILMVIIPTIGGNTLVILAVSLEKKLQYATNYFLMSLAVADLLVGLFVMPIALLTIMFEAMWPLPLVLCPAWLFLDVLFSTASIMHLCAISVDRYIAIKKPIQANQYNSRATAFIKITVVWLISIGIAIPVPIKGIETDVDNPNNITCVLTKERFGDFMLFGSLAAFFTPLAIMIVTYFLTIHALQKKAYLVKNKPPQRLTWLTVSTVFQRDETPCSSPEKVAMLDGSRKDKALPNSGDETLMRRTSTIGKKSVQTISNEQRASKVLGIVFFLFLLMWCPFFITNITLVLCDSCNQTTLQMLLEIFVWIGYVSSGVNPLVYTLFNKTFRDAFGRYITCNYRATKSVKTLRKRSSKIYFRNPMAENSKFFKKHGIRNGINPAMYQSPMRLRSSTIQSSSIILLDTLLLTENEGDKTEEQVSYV
# dopamine D2 receptors = conditions: in vivo; cited from earlier work
# Fmr1 knock-out mice = conditions: Lim et al. 2014; cited from earlier work
# [6] = target: T1, serotonin 5-HT1A receptor; conditions: Compound 2, company data
# dopamine D2 receptor [7] = target: T3, dopamine D2 receptor (Homo sapiens, UniProt P14416); assay: functional activity at dopamine D2 receptor; assay type: biochemical; conditions: Compound 2, company data
# T3 sequence (P14416 whole entry): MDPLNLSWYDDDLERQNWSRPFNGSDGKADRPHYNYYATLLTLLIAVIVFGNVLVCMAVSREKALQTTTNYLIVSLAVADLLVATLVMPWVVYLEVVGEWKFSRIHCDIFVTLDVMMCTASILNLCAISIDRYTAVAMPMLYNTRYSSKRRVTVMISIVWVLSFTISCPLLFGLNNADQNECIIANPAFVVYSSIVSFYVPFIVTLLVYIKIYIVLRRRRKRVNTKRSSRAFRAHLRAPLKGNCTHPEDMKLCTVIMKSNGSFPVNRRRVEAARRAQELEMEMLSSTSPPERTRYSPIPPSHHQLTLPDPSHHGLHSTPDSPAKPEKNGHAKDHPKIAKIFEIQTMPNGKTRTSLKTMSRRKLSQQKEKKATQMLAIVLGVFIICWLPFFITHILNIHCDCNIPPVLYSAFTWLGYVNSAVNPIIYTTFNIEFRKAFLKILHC
# [8] = target: T2, serotonin 5-HT2B receptor; assay: functional activity at serotonin 5-HT2B receptor; assay type: biochemical; conditions: Compound 2, company data
# [9] = target: T2, serotonin 5-HT2B receptor; conditions: literature; cited from earlier work
# dopamine D2 receptor [10] = target: T3, dopamine D2 receptor; conditions: cited from earlier work
compound,measurement,setting,value
O=C1CCc2ccc(OCCCCN3CCN(c4cccc(Cl)c4Cl)CC3)cc2N1 [aripiprazole],functional character at serotonin 5-HT1A receptor,[1],partial agonist
same,affinity for 5-HT1A receptor (in words),[2],high affinity
same,effect on core behavioral deficits,[3]; acute treatment,without effect
same,effect on core behavioral deficits,[3]; chronic administration,improved core behavioral deficits
same,effect on social behavior deficits,[4],neither aripiprazole nor risperidone could improve
same,lethargy/social withdrawal subscale of the Aberrant Behavioral Checklist,ASD patients; open label trials,did not improve
same,affinity for 5-HT2B receptor (in words),[5],high affinity
Cc1nc2n(c(=O)c1CCN1CCC(c3noc4cc(F)ccc34)CC1)CCCC2 [risperidone],occupancy of dopamine D2 receptors,dopamine D2 receptors,occupy dopamine D2 receptors
same,effect on core behavioral deficits,[3]; acute treatment,without effect
same,effect on core behavioral deficits,[3]; chronic administration,improved core behavioral deficits
same,effect on social behavior deficits,[4],neither aripiprazole nor risperidone could improve
same,effect on core symptoms,ASD patients; children with pervasive developmental disorders with high baseline irritability,modest improvements
CC(N)Cc1c[nH]c2ccc(OCc3cccs3)cc12 (centres unmarked) [BW723C86],effect on cognitive abilities,Fmr1 knock-out mice,improvement of cognitive abilities
"O=C(N[C@H]1CC[C@H](CCN2CCN(c3cccc(Cl)c3Cl)CC2)CC1)N1CCOCC1 [Compound 2, trans-N-(4-{2-[4-(2,3-dichloro-phenyl)-piperazine-1-yl]-ethyl}-cyclohexyl)-morpholine-4 carboxamide]",functional character at serotonin 5-HT1A receptor,[6],weak partial agonists
same,functional character at dopamine D2 receptor,dopamine D2 receptor [7],partial agonist
same,functional character at serotonin 5-HT2B receptor,[8],full antagonist
"CN(C)C(=O)N[C@H]1CC[C@H](CCN2CCN(c3cccc(Cl)c3Cl)CC2)CC1 [cariprazine, trans-N-[4-[2-[4-(2,3-dichlorophenyl)piperazin-1-yl]ethyl]cyclohexyl]-N′,N′-dimethylurea]",functional character at serotonin 5-HT2B receptor,[9],full antagonist
same,functional character at serotonin 5-HT1A receptor,[1],weak partial agonists
same,intrinsic activity at serotonin 5-HT1A receptor,[1],38%
same,functional character at dopamine D2 receptor,dopamine D2 receptor [10],partial agonist

# — patent publication US11547707B2, “Carbamoyl cyclohexane derivatives for treating autism spectrum disorder” (Richter Gedeon Nyrt., priority 2019, dated 2023)
